These results are taken from patent publication US7579432B2, “Cyclic peptides as G-protein-coupled receptor antagonists” (Promics Pty Limited, priority 2001, dated 2009).

This assay has as its system neutropenia caused by i.v. LPS. Briefly: LPS-induced neutropenia (endotoxaemia model). The assay is classed as in vivo, rat. The note with it: topical in 50% DMSO/50% H2O, 60 min before LPS 1 mg/kg i.v. On the procedure: The in vivo pharmacological properties of cyclic antagonists were examined following topical dermal administration. A model of endotoxaemia was used, in which 1 mg/kg Escherichia coli […] (LPS; serotype 55:B5, Sigma, USA, stored at 100 mg ml^−1 in dH2O, 4° C.), was injected i.v into a rat, resulting in acute changes in circulating PMN levels and blood pressure. These parameters were measured in the presence and absence of C5aR antagonists (1 mg/kg i.v or 50 mg/kg/rat topically). […] Female Wistar rats weighing between 200-250 g were used for in vivo testing of all C5a receptor antagonists. Rats were anaesthetized using the procedure described above, and transferred on to a heating pad to ensure that body temperature was maintained throughout the experiment. A catheter was inserted in the femoral vein, secured with a suture and flushed with 100 μL of heparinised saline. […] All agents infused i.v were injected over a 2 min period, and were followed with a subsequent injection of 100 μL of saline to ensure complete delivery of the drug. Whole blood samples (0.1 mL) were collected from the tail vein at the time of drug and LPS or C5a administration. Samples were collected at −15, 0, 5, 10, 15, 30, 60, 90, 120 and 150 min relative to the injection of LPS (zero time), and placed in tubes containing heparin (500 Units/mL). To isolate PMNs, 100 μL of blood was layered on to 200 μL of Histopaque 1077 (Sigma U.S.A.) solution and centrifuged at 400×g for 30 min min at room temperature (25° C.). The supernatant layer of platelet-rich plasma, the monocyte and lymphocyte interface and the separation layer of Histopaque were removed and discarded, leaving the PMN and red blood-cell rich layer. […] The number of PMNs was counted on a haemocytometer. The number of cells at each time point was calculated as a percentage of the total number of cells at time zero, prior to complement challenge or LPS. […] Circulating PMN levels were monitored for 150 min following LPS injection, and the percentage change in PMN levels from zero time, when LPS was injected, was calculated.

Bridge positions count the residues as written; N and C are the ends. Square brackets hold non-standard residues; d marks the D form. Peptide text beside a SMILES is read from it. * marks the point of attachment. Hydrocinnamoyl = O=C(CCc1ccccc1)*; dCha = N[C@H](CC1CCCCC1)C(=O)O; Orn = NCCC[C@H](N)C(=O)O

Take `N=C(N)NCCC[C@@H]1NC(=O)[C@H](Cc2c[nH]c3ccccc23)NC(=O)[C@@H](CC2CCCCC2)NC(=O)[C@@H]2CCCN2C(=O)[C@@H](NC(=O)CCc2ccccc2)CCCNC1=O` [Compound 17, HC[OP-dCha-WR]] (Hydrocinnamoyl-[Orn]P[dCha]WR; lactam 1-C): the “neutropenia response to i.v. LPS” value is listed as “inhibited the neutropenia response”. Regarding `CC(=O)N[C@@H](Cc1ccccc1)C(=O)N[C@H]1CCCNC(=O)[C@H](CCCNC(N)=O)NC(=O)[C@H](Cc2c[nH]c3ccccc23)NC(=O)[C@@H](CC2CCCCC2)NC(=O)[C@@H]2CCCN2C1=O` [Compound 45, AcF[OPdChaW-Cit]], the “neutropenia response to i.v. LPS” value is “inhibited the neutropenia response”.
